Values of other authors in US20190223486A1, “CATECHIN ABSORPTION ENHANCER FOR ENHANCING CATECHIN ABSORPTION IN SMALL INTESTINAL EPITHELIAL CELLS” (AMOREPACIFIC CORPORATION, priority 2016, published 2019).

Details: in vivo, po

catechin
share of a catechin intake absorbed by the intestines: less than 2%
